Test results from patent publication US11925653B2, “Combination therapy effective against microorganisms, including drug resistant microorganisms” (Fleurir ABX LLC, priority 2021, dated 2024).

Tests used:
[1] = representative pharmacokinetic parameters; type: in vivo; settings: Dose: Fosfomycin 3000 mg, trimethoprim 720 mg
Text: The therapeutically effective amount may be modified by pharmacokinetic, and pharmacodynamic analysis as is understood in the field. In some embodiments, the novel composition may be provided prophylactically or preventatively or protectively, which may, in some instances, be at or below a therapeutically effective amount.

H. influenzae = settings: cited from earlier work
E. faecalis = settings: cited from earlier work
bacteria = assay: spontaneous mutational frequency (SMF; resistance); type: cell-based; settings: resistant colonies observed divided by total inoculum; plates with 4-fold MIC of the combination or 2-fold MIC of each antibiotic alone
Procedure: MIC was further evaluated to confirm resistance, and the spontaneous mutational frequency was calculated based on the following equation: […]
The spontaneous mutational frequency (SMF; resistance) was calculated as the number of resistant colonies observed divided by the total inoculum.

kel (elimination rate constant) [1] [h⁻¹] | Tmax ([1]; sulfamethoxazole 3600 mg) [h] | Compound | MIC of co-trimoxazole, per component (H. influenzae) [µg/mL] | MIC of co-trimoxazole, per component (E. faecalis) [µg/mL] | frequency of spontaneous mutants resistant (spontaneous mutational frequency, SMF) (bacteria)
0.08 | 2 | COc1cc(Cc2cnc(N)nc2N)cc(OC)c1OC [trimethoprim, 2,4-diamino-5-(3,4,5-trimethoxybenzyl)pyrimidine] | 0.5 | 2 | 
 |  | Cc1cc(NS(=O)(=O)c2ccc(N)cc2)no1 [sulfamethoxazole, N1-(5-methyl-3-isoxazolyl)sulfanilamide] | ≤ 9.5 | 38 | 
 |  | O=C1CN(/N=C/c2ccc([N+](=O)[O-])o2)C(=O)N1 [nitrofurantoin] |  |  | 3.40×10^−8
